# Assay results published in patent US9480259B2, “Pyrazolopyrans having herbicidal and pharmaceutical properties” (BASF SE, priority 2012, dated 2016).
# Biological target: Arabidopsis thaliana SHMT
# Assay: SHMT activity assay (ED50 SHMT), coupled with N5,N10-CH2-THF dehydrogenase, NADH at 340 nm
# Format: biochemical
# Details: Table 2; values given as upper bounds
# Summary of the method: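 His-tagged SHMT purified on Ni-NTA. NADH formation followed at 340 nm for 30 min; ED50 from inhibition of initial velocity.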
row,Compound,EC50 [nM]
1,COC(=O)c1ccc(-c2cc(C#N)cc(C3(C4CCC4)C(C#N)=C(N)Oc4[nH]nc(C)c43)c2)cc1C(=O)OC (centres unmarked) [Compound 2.550],< 10
2,COC(=O)c1cc(OC(F)(F)F)cc(-c2cc(C#N)cc(C3(C4CCC4)C(C#N)=C(N)Oc4[nH]nc(C)c43)c2)c1 (centres unmarked) [Compound 2.551],< 100
3,COC(=O)c1cc(-c2cc(C#N)cc(C3(C4CCC4)C(C#N)=C(N)Oc4[nH]nc(C)c43)c2)cc(C(F)(F)F)c1 (centres unmarked) [Compound 2.552],< 100
4,CC(=O)N(C)c1cc(C#N)cc(C2(C(C)C)C(C#N)=C(N)Oc3[nH]nc(C)c32)c1 (centres unmarked) [Compound 2.553],< 10
5,COC(=O)c1cc(-c2cc(C#N)cc(C3(C4CCC4)C(C#N)=C(N)Oc4[nH]nc(C)c43)c2)cc([N+](=O)[O-])c1 (centres unmarked) [Compound 2.554],< 10
6,Cc1n[nH]c2c1C(c1cc(Cl)cc(CCC#N)c1)(C1CCC1)C(C#N)=C(N)O2 (centres unmarked) [Compound 2.555],< 10
7,Cc1n[nH]c2c1C(c1cc(C#N)cc(-c3ccc(Cl)c(C(=O)O)c3)c1)(C1CCC1)C(C#N)=C(N)O2 (centres unmarked) [Compound 2.556],< 10
8,Cc1n[nH]c2c1C(c1cc(Cl)cc(-c3ccc(Cl)c(C(=O)O)c3)c1)(C1CCC1)C(C#N)=C(N)O2 (centres unmarked) [Compound 2.557],< 10
9,Cc1n[nH]c2c1C(c1cc(C#N)cc(-c3ccc(F)c(C(=O)O)c3)c1)(C1CCC1)C(C#N)=C(N)O2 (centres unmarked) [Compound 2.558],< 10
10,Cc1n[nH]c2c1C(c1cc(C#N)cc(-c3cc(Cl)cc(C(=O)O)c3)c1)(C1CCC1)C(C#N)=C(N)O2 (centres unmarked) [Compound 2.559],< 100
11,Cc1n[nH]c2c1C(c1cc(C#N)cc(-c3ccc(C(=O)O)c(F)c3)c1)(C1CCC1)C(C#N)=C(N)O2 (centres unmarked) [Compound 2.560],< 10
12,COc1cc(-c2cc(C#N)cc(C3(C4CCC4)C(C#N)=C(N)Oc4[nH]nc(C)c43)c2)ccc1C(=O)O (centres unmarked) [Compound 2.561],< 10
13,Cc1n[nH]c2c1C(c1cc(C#N)cc(-c3ccc(C(=O)O)c(Cl)c3)c1)(C1CCC1)C(C#N)=C(N)O2 (centres unmarked) [Compound 2.562],< 10
14,COc1cc(C(=O)O)cc(-c2cc(C#N)cc(C3(C4CCC4)C(C#N)=C(N)Oc4[nH]nc(C)c43)c2)c1 (centres unmarked) [Compound 2.563],< 10
15,Cc1n[nH]c2c1C(c1cc(C#N)cc(-c3cc(C(=O)O)cc(C(=O)O)c3)c1)(C1CCC1)C(C#N)=C(N)O2 (centres unmarked) [Compound 2.564],< 1000
16,Cc1n[nH]c2c1C(c1cc(C#N)cc(-c3ccc(C(=O)O)c(C(=O)O)c3)c1)(C1CCC1)C(C#N)=C(N)O2 (centres unmarked) [Compound 2.565],< 10
17,Cc1n[nH]c2c1C(c1cc(C#N)cc(-c3cc(C(=O)O)cc([N+](=O)[O-])c3)c1)(C1CCC1)C(C#N)=C(N)O2 (centres unmarked) [Compound 2.566],< 10
18,Cc1n[nH]c2c1C(c1cc(Cl)c(O)c(C#N)c1)(C1CCC1)C(C#N)=C(N)O2 (centres unmarked) [Compound 2.567],< 100
19,Cc1n[nH]c2c1C(c1cc(Cl)cc(CC#N)c1)(C1CCC1)C(C#N)=C(N)O2 (centres unmarked) [Compound 2.568],< 10
20,Cc1n[nH]c2c1C(c1cc(Cl)cc(Cc3nnn[nH]3)c1)(C1CCC1)C(C#N)=C(N)O2 (centres unmarked) [Compound 2.570],< 10
21,COC(=O)c1cc(C(=O)O)cc(-c2cc(C#N)cc(C3(C4CCC4)C(C#N)=C(N)Oc4[nH]nc(C)c43)c2)c1 (centres unmarked) [Compound 2.571],< 100
22,COC(=O)c1cc(-c2cc(C#N)cc(C3(C4CCC4)C(C#N)=C(N)Oc4[nH]nc(C)c43)c2)ccc1C(=O)O (centres unmarked) [Compound 2.572],< 100
23,CCc1n[nH]c2c1C(CC)(c1cc(Cl)cc(C#N)c1)C(C#N)=C(N)O2 (centres unmarked) [Compound 2.573],< 100
24,CCc1n[nH]c2c1C(CC)(c1cc(C#N)cc(C(F)(F)F)c1)C(C#N)=C(N)O2 (centres unmarked) [Compound 2.574],< 10

row,Compound,EC50 [nM]
1,CCCC1(c2cc(C#N)cc(C(F)(F)F)c2)C(C#N)=C(N)Oc2[nH]nc(CC)c21 (centres unmarked) [Compound 2.575],< 10
2,CCc1n[nH]c2c1C(CC)(c1cc(Br)cc(C#N)c1)C(C#N)=C(N)O2 (centres unmarked) [Compound 2.576],< 100
3,CCCC1(c2cc(Cl)cc(C#N)c2)C(C#N)=C(N)Oc2[nH]nc(CC)c21 (centres unmarked) [Compound 2.577],< 100
4,CCCC1(c2cc(Br)cc(C#N)c2)C(C#N)=C(N)Oc2[nH]nc(CC)c21 (centres unmarked) [Compound 2.578],< 100
5,CCCC1(c2cc(C#N)cc(C#N)c2)C(C#N)=C(N)Oc2[nH]nc(CC)c21 (centres unmarked) [Compound 2.579],< 100
6,CCC1(c2cc(Cl)cc(C#N)c2)C(C#N)=C(N)Oc2[nH]nc(C(C)C)c21 (centres unmarked) [Compound 2.580],< 100
7,CCC1(c2cc(C#N)cc(C(F)(F)F)c2)C(C#N)=C(N)Oc2[nH]nc(C(C)C)c21 (centres unmarked) [Compound 2.581],< 100
8,CCCC1(c2cc(C#N)cc(C(F)(F)F)c2)C(C#N)=C(N)Oc2[nH]nc(C(C)C)c21 (centres unmarked) [Compound 2.582],< 10
9,CCC1(c2cc(Br)cc(C#N)c2)C(C#N)=C(N)Oc2[nH]nc(C(C)C)c21 (centres unmarked) [Compound 2.583],< 10
10,CCCC1(c2cc(Cl)cc(C#N)c2)C(C#N)=C(N)Oc2[nH]nc(C(C)C)c21 (centres unmarked) [Compound 2.584],< 10
11,CCCC1(c2cc(Br)cc(C#N)c2)C(C#N)=C(N)Oc2[nH]nc(C(C)C)c21 (centres unmarked) [Compound 2.585],< 100
12,CCCC1(c2cc(C#N)cc(C#N)c2)C(C#N)=C(N)Oc2[nH]nc(C(C)C)c21 (centres unmarked) [Compound 2.586],< 1000
13,CCC1(c2cc(Cl)cc(C#N)c2)C(C#N)=C(N)Oc2[nH]nc(COC)c21 (centres unmarked) [Compound 2.587],< 1000
14,CCC1(c2cc(C#N)cc(C(F)(F)F)c2)C(C#N)=C(N)Oc2[nH]nc(COC)c21 (centres unmarked) [Compound 2.588],< 100
15,CCCC1(c2cc(C#N)cc(C(F)(F)F)c2)C(C#N)=C(N)Oc2[nH]nc(COC)c21 (centres unmarked) [Compound 2.589],< 100
16,CCC1(c2cc(Br)cc(C#N)c2)C(C#N)=C(N)Oc2[nH]nc(COC)c21 (centres unmarked) [Compound 2.590],< 1000
17,CCCC1(c2cc(Cl)cc(C#N)c2)C(C#N)=C(N)Oc2[nH]nc(COC)c21 (centres unmarked) [Compound 2.591],< 10000
18,CCCC1(c2cc(Br)cc(C#N)c2)C(C#N)=C(N)Oc2[nH]nc(COC)c21 (centres unmarked) [Compound 2.592],< 1000
19,CCCC1(c2cc(C#N)cc(C#N)c2)C(C#N)=C(N)Oc2[nH]nc(COC)c21 (centres unmarked) [Compound 2.593],< 10000
20,Cc1n[nH]c2c1C(c1ccc(C(=O)O)c(Cl)c1)(C1CCC1)C(C#N)=C(N)O2 (centres unmarked) [Compound 2.594],< 1000
21,Cc1n[nH]c2c1C(c1cc(Cl)cc(-c3ccc(NS(=O)(=O)C(F)(F)F)cc3)c1)(C1CCC1)C(C#N)=C(N)O2 (centres unmarked) [Compound 2.595],< 10
22,Cc1n[nH]c2c1C(c1cc(Cl)cc(Oc3cc(F)c(O)c(F)c3)c1)(C1CCC1)C(C#N)=C(N)O2 (centres unmarked) [Compound 2.596],< 10
23,Cc1n[nH]c2c1C(c1cc(Cl)cc(Oc3ccc(O)c(C(F)(F)F)c3)c1)(C1CCC1)C(C#N)=C(N)O2 (centres unmarked) [Compound 2.597],< 100
24,CCC1(c2cc(Cl)cc(C#N)c2)C(C#N)=C(N)Oc2[nH]nc(OC)c21 (centres unmarked) [Compound 2.598],< 1000

row,Compound,EC50 [nM]
1,CCC1(c2cc(C#N)cc(C(F)(F)F)c2)C(C#N)=C(N)Oc2[nH]nc(OC)c21 (centres unmarked) [Compound 2.599],< 1000
2,CCCC1(c2cc(C#N)cc(C(F)(F)F)c2)C(C#N)=C(N)Oc2[nH]nc(OC)c21 (centres unmarked) [Compound 2.600],< 1000
3,CCC1(c2cc(Br)cc(C#N)c2)C(C#N)=C(N)Oc2[nH]nc(OC)c21 (centres unmarked) [Compound 2.601],< 1000
4,CCCC1(c2cc(Cl)cc(C#N)c2)C(C#N)=C(N)Oc2[nH]nc(OC)c21 (centres unmarked) [Compound 2.602],< 10000
5,CCCC1(c2cc(Br)cc(C#N)c2)C(C#N)=C(N)Oc2[nH]nc(OC)c21 (centres unmarked) [Compound 2.603],< 1000
6,CCCC1(c2cc(C#N)cc(C#N)c2)C(C#N)=C(N)Oc2[nH]nc(OC)c21 (centres unmarked) [Compound 2.604],< 1000
7,CCC1(c2cc(Cl)cc(C#N)c2)C(C#N)=C(N)Oc2[nH]nc(C(F)F)c21 (centres unmarked) [Compound 2.605],< 10
8,CCC1(c2cc(C#N)cc(C(F)(F)F)c2)C(C#N)=C(N)Oc2[nH]nc(C(F)F)c21 (centres unmarked) [Compound 2.606],< 10
9,CCC1(c2cc(Br)cc(C#N)c2)C(C#N)=C(N)Oc2[nH]nc(C(F)F)c21 (centres unmarked) [Compound 2.607],< 10
10,CCCC1(c2cc(Cl)cc(C#N)c2)C(C#N)=C(N)Oc2[nH]nc(C(F)F)c21 (centres unmarked) [Compound 2.608],< 10
11,CCCC1(c2cc(Br)cc(C#N)c2)C(C#N)=C(N)Oc2[nH]nc(C(F)F)c21 (centres unmarked) [Compound 2.609],< 100
12,CCCC1(c2cc(C#N)cc(C#N)c2)C(C#N)=C(N)Oc2[nH]nc(C(F)F)c21 (centres unmarked) [Compound 2.610],< 100
13,Cc1n[nH]c2c1C(c1cc(C#N)cc(N(C)C(=O)C(C)C)c1)(C1CCC1)C(C#N)=C(N)O2 (centres unmarked) [Compound 2.613],< 10
14,CCCCC(=O)N(C)c1cc(C#N)cc(C2(C3CCC3)C(C#N)=C(N)Oc3[nH]nc(C)c32)c1 (centres unmarked) [Compound 2.614],< 10
15,COc1ccc(C2(C(C)(C)F)C(C#N)=C(N)Oc3[nH]nc(C)c32)cc1Cl (centres unmarked) [Compound 2.620],< 10
16,Cc1n[nH]c2c1C(c1cc(C#N)cc(OCC(=O)O)c1)(C1CCC1)C(C#N)=C(N)O2 (centres unmarked) [Compound 2.625],< 100
17,Cc1n[nH]c2c1C(c1cc(O)cc(C#N)c1)(C1CCC1)C(C#N)=C(N)O2 (centres unmarked) [Compound 2.626],< 100
18,Cc1n[nH]c2c1C(c1cc(C#N)cc(CC(=O)O)c1)(C1CCC1)C(C#N)=C(N)O2 (centres unmarked) [Compound 2.627],< 100
19,Cc1n[nH]c2c1C(c1cc(C#N)cc(N(C)CCC#N)c1)(C1CCC1)C(C#N)=C(N)O2 (centres unmarked) [Compound 2.629],< 10
20,Cc1n[nH]c2c1C(c1cc(C#N)cc(N(C)CC#N)c1)(C1CCC1)C(C#N)=C(N)O2 (centres unmarked) [Compound 2.631],< 10
21,Cc1n[nH]c2c1C(c1cc(C#N)cc(N(C)C(=O)CCC(=O)O)c1)(C1CCC1)C(C#N)=C(N)O2 (centres unmarked) [Compound 2.632],< 10
22,Cc1n[nH]c2c1C(c1cc(C#N)cc(N(C)C(=O)c3cccc(C(=O)O)c3)c1)(C1CCC1)C(C#N)=C(N)O2 (centres unmarked) [Compound 2.633],< 100
23,Cc1n[nH]c2c1C(c1cc(C#N)cc(N(C)C(=O)c3ccc(C(=O)O)cc3)c1)(C1CCC1)C(C#N)=C(N)O2 (centres unmarked) [Compound 2.634],< 100
